Reference: publication PMC5908295 (Oncotarget, 2018)

How the values were obtained:
[1] = test system: MOLM-14 cells transduced with FLT3 TKD point mutations (D835Y, D835V and F691L); assay: MTS viability of MOLM-14 cells with FLT3 alleles; assay type: cell-based; conditions: 72 h
[2] = test system: S6 phosphorylation (Ser235/236) in MOLM-16 cells; assay: S6 phosphorylation, flow cytometry; assay type: cell-based; conditions: MOLM16; MOLM-16, 4 hours
Method: (§1) For biomarker experiments, MV-4-11, MOLM-13 and KG-1 cells were seeded at 1 × 10^6 in 3 ml of medium, while MOLM-16 cells were seeded at 1 × 10^6 in 4 ml of medium and left for ~ 18 hours (37°C, 5% CO2). […] Final concertation of DMSO was 0.1%. After 4h of incubation cells were harvested, centrifuged and washed with ice-cold PBS. Cells were fixed with 4% paraformaldehyde buffered with PBS and permeabilized with 90% methanol. Cells were incubated with primary antibody (S6 phopspho-Ser235/236, Cell Signaling, Cat. No: 4856) diluted 1:200 in 0.5% BSA/PBS. […] Cells were analyzed on Flow Cytometer BD LSR II with an excitation wavelength of 488 nm and peak emission 590 nm.

[3] = test system: S6 phosphorylation (Ser235/236) in KG-1 cells; assay: S6 phosphorylation, flow cytometry; assay type: cell-based; conditions: Homo sapiens; KG-1, 4 hours
Method: as §1

[4] = test system: S6 phosphorylation (Ser235/236) in MOLM-13 cells; assay: S6 phosphorylation, flow cytometry; assay type: cell-based; conditions: Homo sapiens; MOLM-13, 4 hours
Method: as §1

[5] = test system: S6 phosphorylation (Ser235/236) in MV-4-11 cells; assay: S6 phosphorylation, flow cytometry; assay type: cell-based; conditions: Homo sapiens, MV4-11; MV-4-11, 4 hours
Method: as §1

MOLM-16 (FLT3-WT) cells = assay: Western blot of FLT3/PIM downstream signaling; assay type: cell-based; conditions: MOLM-16, 4 hours
Method: (§2) Thereafter, we assessed the activities of FLT3-ITD – induced key pro-survival signaling pathways; STAT5, RAF/MEK/ERK and PI3K/AKT (Figure 3). […] Since the expression of a major anti-apoptotic BCL2 family member, MCL1, is regulated by translation, and PIM kinases regulate protein synthesis through 4EBP1, we also assessed the abundance of MCL1.
(§3) Cells were collected, washed twice with cold PBS, and lysed in RIPA buffer and kept on ice for 10 min. Tumor specimens from xenograft studies were homogenized in RIPA buffer using OMNI TH Tissue Homogenizer and kept on ice for 30 min. After incubation, cell and tumor lysates were centrifuged at 13,000×g at 4°C for 10 min and the supernatants were stored at −80°C until use. Protein concentration was measured using the Bradford method. For SDS-PAGE, 50 μg of protein in the Laemmli sample buffer was loaded onto 10% polyacrylamide gels and electrophoresed. Thereafter, proteins were transferred onto polyvinylidene fluoride (PVDF) membranes (Millipore). After blocking with 5% non-fat dry milk/TBS-T or 2% BSA/TBS-T, membranes were incubated with specific primary antibodies (listed in Supplementary Table 2) at 4 °C overnight. After extensive washing in PBS-T, membranes were incubated for 60 min with appropriate secondary peroxidase-conjugated IgG. The immunoreactive proteins were detected using an enhanced chemiluminescence (ECL) substrate (GE Healthcare) and visualized with Hyperfilm-ECL (GE Healthcare Biosciences).

[6] = test system: MV-4-11 (FLT3-ITD+) cells; assay: Western blot of FLT3/PIM downstream signaling; assay type: cell-based; conditions: MV-4-11, 4 hours
Method: as §2, §3

FLT3 (ITD) [7] = biological target: FLT3 (ITD) (Homo sapiens, UniProt P36888, ITD); assay: KINOMEscan Kd (DiscoverX); assay type: binding
Chain of FLT3 (ITD) (Homo sapiens, UniProt P36888, ITD) (P36888 564-993, stated change not applied): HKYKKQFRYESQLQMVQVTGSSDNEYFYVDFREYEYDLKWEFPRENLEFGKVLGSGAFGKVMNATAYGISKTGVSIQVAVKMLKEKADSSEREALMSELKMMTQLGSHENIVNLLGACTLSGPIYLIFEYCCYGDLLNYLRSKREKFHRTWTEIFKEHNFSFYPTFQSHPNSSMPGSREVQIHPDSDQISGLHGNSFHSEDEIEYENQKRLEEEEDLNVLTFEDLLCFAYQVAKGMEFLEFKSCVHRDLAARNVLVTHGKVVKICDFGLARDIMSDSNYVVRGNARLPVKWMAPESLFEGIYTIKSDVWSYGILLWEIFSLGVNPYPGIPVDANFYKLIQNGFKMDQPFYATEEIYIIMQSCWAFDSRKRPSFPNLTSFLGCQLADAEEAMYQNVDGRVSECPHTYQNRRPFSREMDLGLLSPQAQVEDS
Method: (§4) Dissociation constants (Kd) and inhibition levels of FLT3 mutants were measured at DiscoverX using the KINOMEscan^TM Profiling Service (KdELECT).

FLT3 (ITD) [8] = biological target: FLT3 (ITD) (Homo sapiens, UniProt P36888); assay: KINOMEscan Kd (DiscoverX); assay type: binding; conditions: comparison of Kd
Chain of FLT3 (ITD) (Homo sapiens, UniProt P36888) (P36888 564-993, change not shown): as the sequence (P36888 564-993, stated change not applied) above
Method: as §4

[9] = Pharmacokinetics after oral and intravenous administration; assay type: in vivo, dogs (Beagle); conditions: male, Beagle, plasma, Dog, Dose PO/IV 5/1 mg/kg
Method: therapeutic potential in acute myeloid leukemia
sheet for further calculations.
Three male Beagle dogs were administered

GDM-1 = assay: MTS viability assay, 72 h; conditions: Homo sapiens, GDM-1, 72 h
Method: (§5) 15-25 ×10^3 of MV-4-11, MOLM-13, MOLM-14, MOLM-16, KG-1, Eol-1, SKM-1, PL-21, GDM-1, SKNO-1, RS4;11, Kasumi-3 and Kasumi-6 cells were seeded in 150 μL of culture medium onto individual wells in a 96 well plates, in triplicates. On the same day, 50 μL of medium containing tested inhibitor was added to the wells. Each compound was tested at 8 concentrations, in triplicates. As a negative control, the medium containing 0.1% DMSO was used. […] Staurosporine was used at 10 μM as a positive control. One the day of drug addition, basal signal from untreated cells was measured from in triplicate to determine time zero (T0). […] GI50 and LC50 values were extrapolated from a variable (four-parameter) dose-response curve fitted in GraphPad Prism.

MOLM-13 = assay: MTS viability assay, 72 h; conditions: Homo sapiens, MOLM-13, 72 h
Method: as §5

For `CC(C)n1c(C2CCNCC2)nc2c([N+](=O)[O-])c(Br)c(Br)cc21` [SEL24-B489, 5,6-dibromo-4-nitro-2-(piperidin-4-yl)-1-(propan-2-yl)-1H-1,3-benzodiazole], the “viability of MOLM-14 cells with FLT3-TKD mutants versus FLT3-ITD or parental cells” value [1] was “neither of the FLT3 TKD point mutations decreased the cellular sensitivity”, the IC50 [2] was 58 nM and the IC50 [3] was 195 nM. For the same compound, the IC50 [4] was 102 nM, the IC50 [5] was 13 nM and the “S6 (S235/236) phosphorylation” value (MOLM-16 (FLT3-WT) cells) was “profound inhibition”. For the same compound, the MCL1 abundance [6] was “markedly decreased”, the STAT5 signaling [6] was “completely blocked” and the “apoptosis indicated by PARP cleavage” value [6] was “marked induction of apoptosis”. For the same compound, the Kd (FLT3 (ITD) [7]) was 16 nM, the “stronger inhibitor binding to FLT3-ITD than to FLT3-WT” value (FLT3 (ITD) [8]) was 10 fold and the Cmax ([9]; 5 mg/kg) was 155 ng/mL. It also gave a Tmax ([9]; 5 mg/kg) of 1.75 h, a bioavailability ([9]; 5 mg/kg, read-out: F (bioavailability)) of 47% and an AUC(0-t) [9] of 3080 ng·h/mL. For the same compound, the half-life [9] was 1060 min, the GI50 (GDM-1) was 680 nM and the GI50 (MOLM-13) was 73 nM. For the same compound, the CC50 (MOLM-13; read-out: LC50) was 446 nM.
